Reference: US11324725B2, “Compositions and methods for the inhibition of pruritus” (The United States of America, as represented by the …, priority 2017, dated 2022)
Entries after “also recorded” stand apart in the source; their conditions may differ.

Assays:
Firefly luciferase = Firefly luciferase (Photinus pyralis, UniProt P08659); assay: Biochemical Firefly luciferase enzymatic counter-screen; details: for Imax, Fluc in vitro: −100% = 57.5 μM PTC124, n.d. = inhibition not detectable at all; for Direct effect on Firefly luciferase (in words): FLuc in vitro
Sequence of Firefly luciferase (P08659 whole entry): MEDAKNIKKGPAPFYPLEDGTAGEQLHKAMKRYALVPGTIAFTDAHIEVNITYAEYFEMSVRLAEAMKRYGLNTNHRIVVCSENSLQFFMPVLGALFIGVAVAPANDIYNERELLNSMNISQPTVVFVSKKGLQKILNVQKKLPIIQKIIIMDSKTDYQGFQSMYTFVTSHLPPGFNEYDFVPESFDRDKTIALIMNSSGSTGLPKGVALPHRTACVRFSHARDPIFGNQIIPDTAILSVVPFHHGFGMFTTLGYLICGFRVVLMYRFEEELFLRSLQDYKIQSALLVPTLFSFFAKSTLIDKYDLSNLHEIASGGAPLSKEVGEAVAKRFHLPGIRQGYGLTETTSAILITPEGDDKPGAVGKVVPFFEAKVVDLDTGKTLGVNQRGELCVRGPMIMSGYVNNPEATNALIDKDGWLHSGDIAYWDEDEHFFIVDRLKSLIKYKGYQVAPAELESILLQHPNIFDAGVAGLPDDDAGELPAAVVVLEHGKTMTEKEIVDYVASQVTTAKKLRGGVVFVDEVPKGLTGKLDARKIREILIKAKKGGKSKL
Protocol: Direct effects of compounds on firefly luciferase enzymatic activity were tested in vitro. A Firefly luciferase enzyme assay was performed on the 1,408 follow-up compounds. To achieve half-maximal reaction velocity, the D-Luciferin substrate concentration equaled Km and the assay was otherwise performed according to Jang et al., ACS Chem. Bio., 7: 1205-1213 (2012) (which is incorporated herein by reference, in its entirety), as follows: 3 μl of substrate-buffer solution (0.01 mM D-Luciferin, 0.01 mM ATP, 50 mM Tris Acetate, 10 mM Mg Acetate, 0.01% Tween-20 and 0.038% BSA final concentrations) were dispensed into white, solid bottom medium bind 1536-well plates (Greiner Bio-One) with a BioRAPTR Flying Reagent Dispenser™ (Beckman Coulter). Compounds were transferred as described for qHTS along with DMSO (as a negative control) and titrations of PTC124 (as a positive control), ranging from the top concentration of 57.5 μM to 4.0 μM in columns 1-4 of each plate as vehicle and positive controls, respectively. Luciferase enzyme-buffer solution (1 μl) (10 nM P. pyralis luciferase in 50 mM Tris Acetate final concentration) was dispensed and after a 5-minute incubation at room temperature, luminescence was read on a ViewLux™ plate reader.

[1] = test system: soluble guanylate cyclase / pGloSensor-40F reporter in HEK-cGMP-sensor cells; assay: Counter-screen, SNP-stimulated HEK-cGMP-sensor cells; format: cell-based, human
From the text: In order to identify small molecular compounds that inhibit the Npr1 receptor a high-throughput assay to probe inhibition of the receptor guanylate cyclase Npr1 was developed. The assay was designed taking advantage of Promega's GloSensor™ technology (Promega, Madison, Wis.). This technology involves the expression of a cyclic guanosine monophosphate (cGMP) biosensor, comprised of a firefly luciferase variant that was coupled to the cGMP binding domain of human phosphodiesterase 5A, and loading of cells with a cell-permeable luciferase substrate to monitor cGMP production by Npr1 in real time in live cells. Briefly, human embryonic kidney 293 cells stably expressing the human Npr1 and the pGloSensor™-40F cGMP vector (“pGloSensor™-40F”) were generated. Stimulating these cells with the Npr1 agonists human NppA or NppB, luciferase-induced light production could be detected in a dose-dependent manner. HEK293 cells stably expressing human Npr2 and pGS-40F and cells only expressing pGS-40F were also generated to conduct secondary counter screens. In these cells, NppC or sodium nitroprusside were used to stimulate Npr2 or soluble guanylate cyclase which is endogenously expressed in HEK293 cells, respectively. The Npr2-NppC counter screen was employed to search for agents that minimally effected this agonist-receptor interaction. The Npr2-NppC system was used because the side effects of most drugs occur on related receptors. Npr1 and Npr2 are the most related receptors in sequence and function and there are no additional active receptor subtypes in this family of receptors. The procedure is described in detail below.
First, hNpr1 assays were repeated, at 11 concentrations on all selected compounds, to validate all positive compounds from the primary screen. This confirmed the selection criteria used for the selection of the active compounds. […]

[2] = test system: HEK-hNpr1-cGMP-sensor cells; assay: Cytotoxicity counter-screen (CellTiter-Glo); format: cell-based, human; details: for Imax, cytotoxicity: −100% = 115 μM Digitonin, n.d. = inhibition not detectable at all
Protocol: (§1) Compound cytotoxicity was tested with Promega's CellTiter-Glo™ assay which measures cellular adenosine triphosphate content, a surrogate of metabolic activity, with a firefly luciferase reagent. A cytotoxicity counter-screen using HEK-hNpr1-cGMP-sensor cells was performed on the 1,408 follow-up compounds. Cells (1.5×10^3) cells were plated in 4 μL C02-independent media in white, solid bottom TC-treated 1536-well plates (Greiner Bio-One). Cells were incubated at 37° C., 5% CO2 and 95% humidity for 16 hours. Compound transfer was performed as described for qHTS along with DMSO and a titration of Digitonin from a top concentration of 115 μM to 3.5 nM in columns 1-4 of each assay plate as vehicle and cytotoxicity controls, respectively. Cells were incubated with compound for 2 hours at 37° C. CellTiter-Glo™ reagent (Promega) (3 μl) was added to each well with a BioRAPTR Flying Reagent Dispenser™ (Beckman Coulter) and plates were incubated for 10 min at room temperature, protected from light. Luminescence was measured on a ViewLux™ plate reader. Data were normalized to the average signal of DMSO-treated wells as 0% and the average signal of wells treated with 115 μM Digitonin as −100% activity and analyzed as above.

[3] = Cytotoxicity counter-screen (CellTiter-Glo); format: cell-based, human; details: human, HEK-hNpr1-cGMP-sensor cells; 2 hours with compound, CellTiter-Glo
Protocol: as §1

Row | Compound | Imax, Fluc in vitro (Firefly luciferase) | IC50 (Firefly luciferase) | Effect on SNP-induced GloSensor signals (in words) [1] | Direct effect on Firefly luciferase (in words) (Firefly luciferase) | Cytotoxicity (in words) [2] | IC50 at 2 h [3] | Imax, cytotoxicity [2]
1 | Cl.O=C1Nc2ccccc2CN(CC2CCCCC2)C12CCNCC2 [JS-1, 4-(cyclohexylmethyl)-4,5-dihydrospiro[benzo[e][1,4]diazepine-3,4′-piperidin]-2(1H)-one hydrochloride] | −3 ± 3% | – | – | – | – | – | –
2 | CCC(CC)c1cc([C@H]2CN3CC[C@H]2C[C@@H]3CNS(=O)(=O)c2cccs2)nc(-c2ccncc2)n1 [JS-3, N-(((2R,4S,5R)-5-(6-(pentan-3-yl)-2-(pyridin-4-yl)pyrimidin-4-yl)quinuclidin-2-yl)methyl)thiophene-2-sulfonamide] | −1 ± 6% | 25 ± 4 µM | – | – | – | – | –
3 | Cc1noc(C)c1-c1cc(-c2ccccc2Oc2ccccc2)cn2cncc12 [JS-5, 3,5-dimethyl-4-(6-(2-phenoxyphenyl)imidazo[1,5-a]pyridin-8-yl)isoxazole] | – | – | do not attenuate SNP dependent cGMP sensor activation; also recorded: does not block SNP-induced GloSensor™ signals | do not directly inhibit luciferase; also recorded: does not inhibit Firefly luciferase | are not cytotoxic; also recorded: does not produce cytotoxicity | – | –
4 | Cc1nn2c(c1-c1ccccc1OCc1ccccc1)N(C(=O)Cc1ccc3c(c1)OCO3)CCC2 [JS-8, 2-(benzo[d][1,3]dioxol-5-yl)-1-(3-(2-(benzyloxy)phenyl)-2-methyl-6,7-dihydropyrazolo[1,5-a]pyrimidin-4(5H)-yl)ethan-1-one] | – | – | do not attenuate SNP dependent cGMP sensor activation; also recorded: does not block SNP-induced GloSensor™ signals | do not directly inhibit luciferase; also recorded: does not inhibit Firefly luciferase | are not cytotoxic; also recorded: does not produce cytotoxicity | 49 ± 14 µM | −22 ± 29%
5 | Cc1cc(CNC(=O)c2ccc3c(c2)n(CC2CC2)c(=O)n3C2CCCCC2)on1 [JS-11, 1-cyclohexyl-3-(cyclopropylmethyl)-N-((3-methylisoxazol-5-yl)methyl)-2-oxo-2,3-dihydro-1H-benzo[d]imidazole-5-carboxamide] | – | – | do not attenuate SNP dependent cGMP sensor activation; also recorded: does not block SNP-induced GloSensor™ signals | do not directly inhibit luciferase; also recorded: does not inhibit Firefly luciferase | are not cytotoxic; also recorded: does not produce cytotoxicity | – | –
6 | COc1ccccc1-c1n[nH]c2ncc(C(=O)NCc3cccnc3)nc12 [JS-6, 3-(2-methoxyphenyl)-N-(pyridin-3-ylmethyl)-1H-pyrazolo[3,4-b]pyrazine-5-carboxamide] | – | – | – | – | – | 45 ± 43 µM | −36 ± 87%
